According to patent US7087757B2, “Phenyl-substituted imidazopyridines” (Ortho-McNeil Pharmaceutical, Inc., priority 2000, dated 2006):

Target: T1, human histamine H3 receptor (Homo sapiens, UniProt Q9Y5N1)
T1 construct: One microgram supercoiled H3 receptor cDNA was added to the cells and mixed; expressed in transfected cells; membranes prepared from cell pellets
Experiment: [3H]-N-methylhistamine binding
Conditions: membranes of histamine H3 receptor-expressing SK-N-MC cells; 0.8 nM [3H]-N-methylhistamine; 45 minutes at 25° C.; Ki calculated with KD of 800 pM
Method: Screening using the human receptor is particularly important for the identification of new therapies for the treatment of human disease.
A 10 cm tissue culture dish with a confluent monolayer of SK-N-MC cells was split two days prior to transfection. Using sterile technique the media was removed and the cells were detached from the dish by the addition of trypsin. One fifth of the cells were then placed onto a new 10 cm dish. Cells were grown in a 37° C. incubator with 5% CO2 in Minimal Essential Media Eagle with 10% Fetal Bovine Serum. After two days cells were approximately 80% confluent. These were removed from the dish with trypsin and pelleted in a clinical centrifuge. […] One microgram supercoiled H3 receptor cDNA was added to the cells and mixed. The voltage for the electroporation was set at 0.25 kV, the capacitance is set at 960 μF.
After electroporation the cells were diluted into 10 mL complete media and plated onto four 10 cm dishes. Due to the variability in the efficiency of electroporation, four different concentrations of cells were plated. The ratios used were: 1:20, 1:10, and 1:5, with the remainder of the cells being added to the fourth dish. The cells were allowed to recover for 24 hours before adding the selection media (complete media with 600 μg/ml G418). After 10 days dishes were analyzed for surviving colonies of cells. Dishes with well-isolated colonies were used. Cells from individual colonies were isolated and tested. SK-N-MC cells were used because they give efficient coupling for inhibition of adenylate cyclase. The clones that gave the most robust inhibition of adenylate cyclase in response to histamine were used for further study.
Cell pellets from histamine H3 receptor-expressing SK-N-MC cells were homogenized in 20 mM Tris HCl/0.5 mM EDTA. Supernatants from a 800 g spin were collected, reccentrifuged at 30,000 g for 30 minutes. Pellets were rehomogenized in 50 mM Tris/5 mM EDTA (pH 7.4). Membranes were incubated with 0.8 nM [^3H]-N-methylhistamine plus/minus test compounds for 45 minutes at 25° C. and harvested by rapid filtration over GF/C glass fiber filters (pretreated with 0.3% polyethylenimine) followed by four washes with ice cold buffer. Filters were dried, added to 4 mL scintillation cocktail and then counted on a liquid scintillation counter.

T1 sequence (Q9Y5N1 whole entry): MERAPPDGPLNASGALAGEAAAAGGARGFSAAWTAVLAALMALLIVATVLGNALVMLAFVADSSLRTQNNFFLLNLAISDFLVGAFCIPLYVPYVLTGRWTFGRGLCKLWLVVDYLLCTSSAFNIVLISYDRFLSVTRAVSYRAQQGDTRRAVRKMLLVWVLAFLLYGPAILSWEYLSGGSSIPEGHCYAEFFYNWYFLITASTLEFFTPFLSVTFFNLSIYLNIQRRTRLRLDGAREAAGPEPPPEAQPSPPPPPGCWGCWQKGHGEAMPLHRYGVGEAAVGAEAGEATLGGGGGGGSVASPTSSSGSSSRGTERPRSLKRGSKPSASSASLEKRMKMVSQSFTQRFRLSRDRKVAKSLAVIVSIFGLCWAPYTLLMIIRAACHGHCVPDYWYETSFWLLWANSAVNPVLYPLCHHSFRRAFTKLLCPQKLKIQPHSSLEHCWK

| SMILES | Ki |
| --- | --- |
| Cc1ccn2cc(-c3ccc(OCCCN4CCCCC4)cc3F)nc2c1 [Example 20, 2-(4-Piperidinopropoxy-2-fluorophenyl)-7-methylimidazo[1,2-a]pyridine] | 10 nM |
| c1cc(-c2cn3c(n2)CCCC3)ccc1OCCCN1CCCCC1 [Example 16, 2-[4-(3-Piperidin-1-yl-propoxy)-phenyl]-5,6,7,8-tetrahydro-imidazo[1,2-a]pyridine] | 0.75 nM |
| Cc1cccn2cc(-c3ccc(NCCN4CCCC4)cc3)nc12 [Example 32, [4-(8-Methyl-imidazo[1,2-a]pyridin-2-yl)-phenyl]-(2-pyrrolidin-1-yl-ethyl)-amine] | 7 nM |
| CCN(CC)CCOC(=O)c1ccc(-c2cn3cccc(C)c3n2)cc1 [Example 3, 4-(8-Methyl-imidazo[1,2-a]pyridin-2-yl)-benzoic acid 2-diethylamino-ethyl ester] | 20 nM |
| Cc1cccn2cc(-c3ccc(NCCCN4CCCCC4)cc3)nc12 [Example 27, 2-[4-[3-(Piperidino)propylamino]phenyl]-8-methylimidazo[1,2-a]pyridine] | 7 nM |
| CCN(CC)CCNC(=O)c1ccc(-c2cn3cccc(C)c3n2)cc1 [Example 1, N-(2-Diethylamino-ethyl)-4-(8-methyl-imidazo[1,2-a]pyridin-2-yl)-benzamide] | 90 nM |
| COc1cc(-c2cn3ccc(C)cc3n2)ccc1OCCCN1CCCCCC1 [Example 14, 2-[4-(3-Azepan-1-yl-propoxy)-3-methoxy-phenyl]-7-methyl-imidazo[1,2-a]pyridine] | 34 nM |
| Cc1ccn2cc(-c3ccc(OCCCN4CCCCCC4)cc3)nc2c1 [Example 19] | 2 nM |

The next lines start with the values.

| Ki | SMILES |
| --- | --- |
| 5000 nM | Cc1cccn2cc(-c3ccc(OCC(O)CN4CCN(Cc5ccccc5)CC4)cc3)nc12 (stereo not shown) [Example 51, 2-[4-[2-Hydroxy-3-(4-benzylpiperazino)propoxy]phenyl]-8-methylimidazo[1,2-a]pyridine] |
| 3 nM | Cc1ccn2cc(-c3ccc(C#CCCN4CCCCC4)cc3)nc2c1 [Example 33, 2-[4-[4-Piperidinobut-1-ynyl]phenyl]-7-methylimidazo[1,2-a]pyridine] |
| 1000 nM | Cc1cccn2cc(-c3ccc(OCCCNC(C)c4ccccc4)cc3)nc12 (stereo not drawn) [Example 42, 2-(4-alpha-Methylbenzylaminopropoxyphenyl)-8-methylimidazo[1,2-a]pyridine] |
| 11 nM | Cc1ccn2cc(-c3ccc(C=CCCN4CCCCC4)cc3)nc2c1 (mixture of isomers) [Example 36, (E/Z)-2-[4-[4-Piperidinobut-1-enyl]phenyl]-7-methylimidazo[1,2-a]pyridine] |
| 17 nM | Cc1ccn2cc(-c3ccc(/C=C/CCN4CCCC4)cc3)nc2c1 [Example 40, 7-Methyl-2-[4-(4-pyrrolidin-1-yl-but-1-enyl)-phenyl]imidazo[1,2-a]pyridine] |
